The values below come from patent US20080146579A1, “TREATMENT OF PATIENTS WITH CHRONIC PULMONARY DISEASES AND NUTRITIONAL COMPOSITIONS THEREFORE” (N.V. Nutricia, priority 2006, published 2008).

The subject of one series is liver cells. Put plainly: in vitro experiments in liver cells, nucleotide status. As to conditions: incubation with increasing concentrations. In kind it is cell-based.
The conditions of series [1]: daily dose of 200 mg; cited from earlier work.
The subject of series [2] is pulmonary artery pressure. The settings on record: in vivo studies; cited from earlier work.

Structures are written as SMILES.

For `Nc1nc2ncc(CNc3ccc(C(=O)N[C@@H](CCC(=O)O)C(=O)O)cc3)nc2c(=O)[nH]1` [folic acid], the nucleotide status entry with liver cells is “able to restore the nucleotide status”.

As to `COC1=C(OC)C(=O)C(C/C=C(\C)CC/C=C(\C)CC/C=C(\C)CC/C=C(\C)CC/C=C(\C)CC/C=C(\C)CC/C=C(\C)CC/C=C(\C)CC/C=C(\C)CCC=C(C)C)=C(C)C1=O` [CoQ10, Coenzyme Q10], the “increase in plasma CoQ10 levels” value in series [1] is reported as “more than six-fold increase”.

On to `CC(=O)N[C@@H](CS)C(=O)O` [NAC, N-acetyl cysteine], for which the “endotoxin-induced rise in pulmonary artery pressure” value in series [2] is on record as “attenuates”.
